Experimental data: PMC3433420 (PLoS ONE, 2012)
Residues, ends and D or L forms follow the SMILES beside them.

Columns and labels:
Assay in all cases: In-house protein microarrays (with or without 5 mM DTT), protein named per line
Assay type in all cases: binding
SH2 and PTB domains [1] = target: T1, SH2 and PTB domains (Homo sapiens, UniProt P46108); details: protein CRK; PM assay replicate # 39307; array fabrication # 39286
T1 construct: thioredoxin; made in house; host or cells: BL21(DE3)pLysS E. coli
In short: (§1)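 Recombinant domains (~40 µM) spotted in duplicate on aldehyde slides, quenched 1 h at room temperature in HEPES/KCl/Tween-20 buffer pH 7.8 with 5 mM DTT and 1% BSA, then probed with rhodamine-labeled peptide. Thioredoxin-subtracted mean fluorescence fitted for KD.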

SH2 and PTB domains [2] = target: T2, SH2 and PTB domains (Homo sapiens, UniProt Q13322); details: protein GRB10; PM assay replicate # 39307; array fabrication # 39286
T2 construct: thioredoxin; made in house; host or cells: BL21(DE3)pLysS E. coli
In short: as §1

SH2 and PTB domains [3] = target: T3, SH2 and PTB domains (Homo sapiens, UniProt Q8IZW8); details: protein TNS4; PM assay replicate # 39307; array fabrication # 39286
T3 construct: thioredoxin; made in house; host or cells: BL21(DE3)pLysS E. coli
In short: as §1

SH2 and PTB domains [4] = target: T4, SH2 and PTB domains (Homo sapiens, UniProt Q8WV28); details: protein BLNK; PM assay replicate # 39307; array fabrication # 39286
T4 construct: thioredoxin; made in house; host or cells: BL21(DE3)pLysS E. coli
In short: as §1

SH2 and PTB domains [5] = target: T5, SH2 and PTB domains (Homo sapiens, UniProt O14796); details: protein SH2D1B
T5 construct: thioredoxin; made in house; host or cells: BL21(DE3)pLysS E. coli
T5 sequence (O14796 1-132): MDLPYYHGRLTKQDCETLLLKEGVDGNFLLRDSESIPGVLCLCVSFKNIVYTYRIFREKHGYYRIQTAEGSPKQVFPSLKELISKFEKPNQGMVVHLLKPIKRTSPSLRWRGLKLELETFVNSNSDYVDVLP
In short: as §1

SH2 and PTB domains [6] = target: T6, SH2 and PTB domains (Homo sapiens, UniProt O75159); details: protein SOCS5; PM assay replicate # 39337; array fabrication # 39329
T6 construct: thioredoxin; made in house; host or cells: BL21(DE3)pLysS E. coli
In short: as §1

SH2 and PTB domains [7] = target: T7, SH2 and PTB domains (Homo sapiens, UniProt O75815); details: protein BCAR3; PM assay replicate # 39337; array fabrication # 39329
T7 construct: thioredoxin; made in house; host or cells: BL21(DE3)pLysS E. coli
In short: as §1

SH2 and PTB domains [8] = target: T8, SH2 and PTB domains (Homo sapiens, UniProt P06239); details: protein LCK
T8 construct: thioredoxin; made in house; host or cells: BL21(DE3)pLysS E. coli
In short: as §1

SH2 and PTB domains [9] = target: T9, SH2 and PTB domains (Homo sapiens, UniProt P15498); details: protein VAV1, array fabrication # 39329
T9 construct: thioredoxin; made in house; host or cells: BL21(DE3)pLysS E. coli
In short: as §1

SH2 and PTB domains [10] = target: T10, SH2 and PTB domains (Homo sapiens, UniProt Q06124); details: protein PTPN11-NC, array fabrication # 39329
T10 construct: thioredoxin; made in house; host or cells: BL21(DE3)pLysS E. coli
In short: as §1

SH2 and PTB domains [11] = target: T11, SH2 and PTB domains (Homo sapiens, UniProt Q63HR2); details: protein TENC1, array fabrication # 39329
T11 construct: thioredoxin; made in house; host or cells: BL21(DE3)pLysS E. coli
In short: as §1

SH2 and PTB domains [12] = target: T12, SH2 and PTB domains (Homo sapiens, UniProt Q8N5H7); details: protein SH2D3C, array fabrication # 39329
T12 construct: thioredoxin; made in house; host or cells: BL21(DE3)pLysS E. coli
In short: as §1

[13] = PM assay replicate # 39336, array fabrication # 39329
[14] = PM assay replicate # 39603, array fabrication # 39392

T8 sequence (P06239 whole entry, the tested form may be a part): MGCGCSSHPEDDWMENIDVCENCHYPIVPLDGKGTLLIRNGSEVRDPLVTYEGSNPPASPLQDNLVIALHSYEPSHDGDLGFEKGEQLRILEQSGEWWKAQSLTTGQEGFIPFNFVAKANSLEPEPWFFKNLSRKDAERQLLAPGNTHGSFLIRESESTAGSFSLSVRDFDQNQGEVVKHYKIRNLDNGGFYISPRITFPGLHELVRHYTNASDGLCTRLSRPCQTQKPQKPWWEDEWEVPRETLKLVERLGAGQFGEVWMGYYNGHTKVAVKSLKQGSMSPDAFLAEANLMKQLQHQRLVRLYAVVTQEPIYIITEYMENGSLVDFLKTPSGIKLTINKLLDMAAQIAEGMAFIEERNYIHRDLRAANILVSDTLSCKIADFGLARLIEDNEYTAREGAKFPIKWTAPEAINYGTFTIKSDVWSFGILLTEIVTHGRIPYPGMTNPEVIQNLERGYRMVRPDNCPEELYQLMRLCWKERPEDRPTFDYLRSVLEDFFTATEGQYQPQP
T12 sequence (Q8N5H7 whole entry, the tested form may be a part): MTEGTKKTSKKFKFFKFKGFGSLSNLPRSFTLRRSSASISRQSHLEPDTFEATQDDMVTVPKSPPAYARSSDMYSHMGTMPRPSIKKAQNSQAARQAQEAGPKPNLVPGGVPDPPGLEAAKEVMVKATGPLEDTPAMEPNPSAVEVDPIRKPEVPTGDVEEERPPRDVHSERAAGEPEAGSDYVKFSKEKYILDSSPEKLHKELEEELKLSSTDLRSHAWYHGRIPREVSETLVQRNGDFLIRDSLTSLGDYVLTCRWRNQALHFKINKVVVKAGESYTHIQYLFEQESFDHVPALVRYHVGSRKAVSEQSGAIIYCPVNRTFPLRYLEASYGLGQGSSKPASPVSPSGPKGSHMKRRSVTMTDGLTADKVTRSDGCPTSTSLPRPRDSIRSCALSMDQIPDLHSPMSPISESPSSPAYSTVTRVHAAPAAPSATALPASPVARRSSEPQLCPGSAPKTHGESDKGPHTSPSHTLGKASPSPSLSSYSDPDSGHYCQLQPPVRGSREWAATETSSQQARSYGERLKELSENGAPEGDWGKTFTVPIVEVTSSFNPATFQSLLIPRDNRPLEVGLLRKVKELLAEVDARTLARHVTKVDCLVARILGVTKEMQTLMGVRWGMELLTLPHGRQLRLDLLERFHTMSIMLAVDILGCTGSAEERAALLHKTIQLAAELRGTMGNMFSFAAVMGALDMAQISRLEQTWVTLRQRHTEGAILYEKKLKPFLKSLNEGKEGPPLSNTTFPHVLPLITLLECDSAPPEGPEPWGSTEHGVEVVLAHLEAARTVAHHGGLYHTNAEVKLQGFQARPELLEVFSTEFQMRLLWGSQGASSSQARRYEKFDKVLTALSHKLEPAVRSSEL
T10 sequence (Q06124 whole entry, the tested form may be a part): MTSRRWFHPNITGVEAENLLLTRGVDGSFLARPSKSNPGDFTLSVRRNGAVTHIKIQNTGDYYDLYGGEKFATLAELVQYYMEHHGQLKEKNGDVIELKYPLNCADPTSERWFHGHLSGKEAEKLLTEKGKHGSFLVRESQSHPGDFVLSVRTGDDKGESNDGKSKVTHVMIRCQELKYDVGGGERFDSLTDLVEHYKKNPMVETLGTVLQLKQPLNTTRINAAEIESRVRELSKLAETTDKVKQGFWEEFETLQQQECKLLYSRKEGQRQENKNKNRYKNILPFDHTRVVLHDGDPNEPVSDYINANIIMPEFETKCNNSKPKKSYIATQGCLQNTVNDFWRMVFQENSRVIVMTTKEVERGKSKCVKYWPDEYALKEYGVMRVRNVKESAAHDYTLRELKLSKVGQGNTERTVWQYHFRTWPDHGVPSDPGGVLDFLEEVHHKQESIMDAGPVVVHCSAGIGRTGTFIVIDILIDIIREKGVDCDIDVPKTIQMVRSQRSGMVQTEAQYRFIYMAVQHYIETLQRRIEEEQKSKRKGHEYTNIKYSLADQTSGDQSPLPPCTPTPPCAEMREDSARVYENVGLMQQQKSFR
T9 sequence (P15498 whole entry, the tested form may be a part): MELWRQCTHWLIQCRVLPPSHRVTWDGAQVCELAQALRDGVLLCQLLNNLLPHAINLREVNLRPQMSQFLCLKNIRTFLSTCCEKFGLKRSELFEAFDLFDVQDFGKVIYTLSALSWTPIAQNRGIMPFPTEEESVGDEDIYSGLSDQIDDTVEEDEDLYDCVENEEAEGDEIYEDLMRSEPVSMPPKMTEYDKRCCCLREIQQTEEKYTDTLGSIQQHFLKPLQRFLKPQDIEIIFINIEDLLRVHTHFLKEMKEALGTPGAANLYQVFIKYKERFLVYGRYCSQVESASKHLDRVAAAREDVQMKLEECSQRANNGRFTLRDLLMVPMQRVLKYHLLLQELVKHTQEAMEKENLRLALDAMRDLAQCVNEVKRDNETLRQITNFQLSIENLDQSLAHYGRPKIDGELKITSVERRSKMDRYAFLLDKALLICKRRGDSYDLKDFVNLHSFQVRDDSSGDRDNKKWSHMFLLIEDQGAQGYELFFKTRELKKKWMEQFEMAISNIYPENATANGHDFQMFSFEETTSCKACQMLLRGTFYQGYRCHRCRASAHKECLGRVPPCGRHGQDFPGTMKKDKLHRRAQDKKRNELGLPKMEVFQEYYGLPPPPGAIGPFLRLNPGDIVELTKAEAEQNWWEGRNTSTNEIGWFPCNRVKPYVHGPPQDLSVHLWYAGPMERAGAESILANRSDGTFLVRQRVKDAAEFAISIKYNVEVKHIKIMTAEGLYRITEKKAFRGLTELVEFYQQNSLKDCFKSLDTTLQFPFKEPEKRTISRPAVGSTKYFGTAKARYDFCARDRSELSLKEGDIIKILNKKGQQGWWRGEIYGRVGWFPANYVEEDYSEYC
T11 sequence (Q63HR2 whole entry, the tested form may be a part): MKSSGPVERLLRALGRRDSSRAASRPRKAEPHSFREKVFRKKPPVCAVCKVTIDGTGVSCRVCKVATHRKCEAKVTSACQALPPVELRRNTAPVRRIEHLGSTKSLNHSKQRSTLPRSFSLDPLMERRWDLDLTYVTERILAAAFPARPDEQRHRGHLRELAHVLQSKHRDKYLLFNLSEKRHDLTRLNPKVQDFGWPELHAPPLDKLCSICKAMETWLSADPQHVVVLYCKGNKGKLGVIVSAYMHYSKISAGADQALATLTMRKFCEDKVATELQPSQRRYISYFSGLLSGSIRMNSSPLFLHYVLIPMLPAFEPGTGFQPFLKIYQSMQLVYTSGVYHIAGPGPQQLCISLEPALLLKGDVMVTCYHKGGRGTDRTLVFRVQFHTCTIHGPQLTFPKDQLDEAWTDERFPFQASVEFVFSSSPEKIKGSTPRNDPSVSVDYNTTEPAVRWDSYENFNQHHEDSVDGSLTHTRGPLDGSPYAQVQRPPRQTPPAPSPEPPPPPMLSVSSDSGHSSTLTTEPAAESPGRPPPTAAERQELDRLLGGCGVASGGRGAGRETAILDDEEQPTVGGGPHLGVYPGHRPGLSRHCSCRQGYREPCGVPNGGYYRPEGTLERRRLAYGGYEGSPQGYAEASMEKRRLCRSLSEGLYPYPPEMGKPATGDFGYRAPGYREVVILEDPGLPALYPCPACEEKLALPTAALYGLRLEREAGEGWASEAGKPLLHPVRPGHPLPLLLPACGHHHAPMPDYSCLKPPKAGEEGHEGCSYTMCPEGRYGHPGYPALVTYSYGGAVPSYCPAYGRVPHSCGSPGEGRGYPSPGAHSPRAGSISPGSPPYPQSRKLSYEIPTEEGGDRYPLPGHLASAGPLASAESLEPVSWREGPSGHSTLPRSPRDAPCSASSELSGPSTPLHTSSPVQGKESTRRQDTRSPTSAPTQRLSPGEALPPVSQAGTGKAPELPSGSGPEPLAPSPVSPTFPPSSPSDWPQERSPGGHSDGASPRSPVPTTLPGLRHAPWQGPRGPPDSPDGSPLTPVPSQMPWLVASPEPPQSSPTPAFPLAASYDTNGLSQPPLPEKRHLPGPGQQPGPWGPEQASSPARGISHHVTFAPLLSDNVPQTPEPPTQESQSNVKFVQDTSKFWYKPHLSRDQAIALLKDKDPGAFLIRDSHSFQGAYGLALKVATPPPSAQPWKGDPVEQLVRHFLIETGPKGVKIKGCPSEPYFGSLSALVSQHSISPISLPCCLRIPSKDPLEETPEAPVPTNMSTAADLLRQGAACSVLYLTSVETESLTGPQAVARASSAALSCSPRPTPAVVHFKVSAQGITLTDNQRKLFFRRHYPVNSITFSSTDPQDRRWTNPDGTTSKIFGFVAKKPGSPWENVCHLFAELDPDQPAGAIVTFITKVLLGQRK
T6 sequence (O75159 whole entry, the tested form may be a part): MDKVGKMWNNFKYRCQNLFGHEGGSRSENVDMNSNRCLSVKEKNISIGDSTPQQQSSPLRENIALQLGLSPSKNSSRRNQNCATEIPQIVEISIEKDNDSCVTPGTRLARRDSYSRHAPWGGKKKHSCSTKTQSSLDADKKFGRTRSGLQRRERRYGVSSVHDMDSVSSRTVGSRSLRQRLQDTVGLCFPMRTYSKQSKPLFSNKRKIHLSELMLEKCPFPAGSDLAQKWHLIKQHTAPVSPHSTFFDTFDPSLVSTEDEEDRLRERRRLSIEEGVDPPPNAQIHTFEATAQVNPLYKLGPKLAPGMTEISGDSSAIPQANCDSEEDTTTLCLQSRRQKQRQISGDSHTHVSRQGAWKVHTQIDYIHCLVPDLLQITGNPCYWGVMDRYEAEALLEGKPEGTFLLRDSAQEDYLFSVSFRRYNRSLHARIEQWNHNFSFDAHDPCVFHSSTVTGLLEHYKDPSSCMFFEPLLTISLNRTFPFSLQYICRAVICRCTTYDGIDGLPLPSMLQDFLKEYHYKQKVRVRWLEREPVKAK
T1 sequence (P46108 whole entry, the tested form may be a part): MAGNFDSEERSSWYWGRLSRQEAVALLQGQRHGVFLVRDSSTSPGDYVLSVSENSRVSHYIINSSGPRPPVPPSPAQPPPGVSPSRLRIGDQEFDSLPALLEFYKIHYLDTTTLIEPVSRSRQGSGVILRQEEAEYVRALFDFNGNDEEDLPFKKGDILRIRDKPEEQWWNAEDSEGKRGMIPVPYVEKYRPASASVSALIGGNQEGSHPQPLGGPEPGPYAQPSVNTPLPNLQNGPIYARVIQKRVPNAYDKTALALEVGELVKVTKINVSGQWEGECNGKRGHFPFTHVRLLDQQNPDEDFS

CC[C@H](C)[C@H](NC(=O)[C@H](CC(N)=O)NC(=O)[C@H](CC(N)=O)NC(=O)[C@H](CCCCN)NC(=O)[C@H](CC(C)C)NC(=O)[C@H](Cc1ccc(OP(=O)(O)O)cc1)NC(=O)[C@H](CCC(=O)O)NC(=O)[C@H](C)NC(=O)[C@H](CCCCN)NC(=O)CNC(=O)[C@H](CC(C)C)NC(=O)[C@@H](NC(=O)[C@H](CC(N)=O)NC(=O)[C@H](C)NC(=O)[C@@H](N)Cc1ccccc1)[C@@H](C)O)C(=O)N[C@@H](CC(C)C)C(=O)N[C@@H](CO)C(=O)N[C@@H](CC(=O)O)C(=O)O [ErbB4 pY1221 (18-mer)] (HELM PEPTIDE1{F.A.N.T.L.G.K.A.E.[O=C([C@H](Cc1ccc(OP(=O)(O)O)cc1)N[*:1])[*:2]].L.K.N.N.I.L.S.D}$$$$V2.0)
Kd (SH2 and PTB domains [1]): 64540 nM
Kd (SH2 and PTB domains [2]): 230 nM
Kd (SH2 and PTB domains [3]): 320 nM
Kd (SH2 and PTB domains [4]): 4000 nM

CC(C)C[C@H](NC(=O)[C@@H]1CCCN1)C(=O)N[C@@H](CCC(N)=O)C(=O)N[C@@H](CCCNC(=N)N)C(=O)N[C@@H](Cc1ccc(OP(=O)(O)O)cc1)C(=O)N[C@@H](CO)C(=O)N[C@@H](CCC(=O)O)C(=O)N[C@@H](CC(=O)O)C(=O)N1CCC[C@H]1C(=O)N[C@H](C(=O)N[C@H](C(=O)N1CCC[C@H]1C(=O)N[C@@H](CC(=O)O)C(=O)O)C(C)C)[C@@H](C)O [ErbB2 pY1112] (HELM PEPTIDE1{P.L.Q.R.[O=C([C@H](Cc1ccc(OP(=O)(O)O)cc1)N[*:1])[*:2]].S.E.D.P.T.V.P.D}$$$$V2.0)
Kd (SH2 and PTB domains [5]; PM assay replicate # 39331, array fabrication # 39329): 2030 nM
Kd (SH2 and PTB domains [5]; [13]): 5390 nM
Kd (SH2 and PTB domains [5]; [14]): 490 nM

CC(C)C[C@H](NC(=O)[C@@H]1CCCN1C(=O)[C@H](C)NC(=O)[C@@H](NC(=O)[C@H](Cc1ccc(OP(=O)(O)O)cc1)NC(=O)CNC(=O)[C@H](CC(=O)O)NC(=O)[C@@H](NC(=O)[C@@H](N)CCC(=O)O)[C@@H](C)O)C(C)C)C(=O)N[C@H](C(=O)N[C@@H](CS)C(=O)N[C@@H](CO)C(=O)N[C@@H](CC(=O)O)C(=O)O)[C@@H](C)O [ErbB2 pY1127]
Kd (SH2 and PTB domains [6]): 700 nM
Kd (SH2 and PTB domains [7]): 730 nM
Kd (SH2 and PTB domains [8]; [13]): 800 nM
Kd (SH2 and PTB domains [8]; PM assay replicate # 39337, array fabrication # 39329): 1610 nM
Kd (SH2 and PTB domains [8]; [14]): 130 nM
Kd (SH2 and PTB domains [9]; PM assay replicate # 39336): 190 nM
Kd (SH2 and PTB domains [9]; PM assay replicate # 39337): 90 nM
Kd (SH2 and PTB domains [10]; PM assay replicate # 39336): 1530 nM
Kd (SH2 and PTB domains [10]; PM assay replicate # 39337): 1150 nM
Kd (SH2 and PTB domains [11]; PM assay replicate # 39336): 32590 nM
Kd (SH2 and PTB domains [11]; PM assay replicate # 39337): 3940 nM
Kd (SH2 and PTB domains [12]; PM assay replicate # 39336): 1520 nM
Kd (SH2 and PTB domains [12]; PM assay replicate # 39337): 5510 nM
